Data on 15 compounds can be found in US7498349B2, “Biaryl compounds having anti-infective activity” (Genesoft Pharmaceuticals, Inc., priority 2002, dated 2009).

For assay [1], the system named is B. cereus ATCC 11778. The experiment in a line: MIC, NCCLS broth microdilution assay. Type of assay: cell-based, Bacillus cereus. Conditions: B. cereus ATCC 11778. (In general: In broth dilution the organism is exposed to a series of concentrations in liquid medium.)
Assay [2] deals with C. albicans ATCC 38247. The assay is described as follows: MIC, antifungal assay. Type of assay: cell-based, Candida albicans. Conditions: C. albicans ATCC 38247.
In assay [3] the test system is E. faecalis ATCC 29212. The assay is described as follows: MIC, NCCLS broth microdilution assay. Type of assay: cell-based, Enterococcus faecalis. The following applies: E. faecalis ATCC 29212.
For assay [4], the system named is S. aureus ATCC 13709. The assay is described as follows: MIC, NCCLS broth microdilution assay. Type of assay: cell-based, Staphylococcus aureus. The following applies: S. aureus ATCC 13709, methicillin sensitive strain (MSSA).
Excerpt: In vitro biological activity data were collected for a variety of microorganisms, including Bacillus cereus (ATCC 11778), Staphylococcus aureus (ATCC 33591; ATCC 27660, a methicillin resistant strain (MRSA); ATCC 13709, a methicillin sensitive strain (MSSA)), Escherichia coli (ATCC 25922), Enterococcus faecalis (ATCC 29212), Streptococcus pneumoniae (ATCC 49619; ATCC 51422, a penicillin resistant strain (PRSP)), Enterococcus faecium (ATCC 51559, a vancomycin resistant strain (VRE)), and Staphylococcus epidermidis (ATCC 12228).
The minimal inhibition concentration (MIC) of these compounds was determined using the National Committee for Clinical Laboratory Standards (NCCLS) broth microdilution assay in microtiter plates, as set forth in: (1) the guidelines of the National Committee for Clinical Laboratory Standards (NCCLS) Document M7-A4 (NCCLS, 1997); (2) the guidelines of the National Committee for Clinical Laboratory Standards (NCCLS) Document M11-A4 (NCCLS, 1997); and (3) the guidelines and reference method of the National Committee for Clinical Laboratory Standards (NCCLS) Document M27 -T (NCCLS, 1995).
Assay [5] relates to S. aureus ATCC 27660. The assay is described as follows: MIC, NCCLS broth microdilution assay. Conditions: S. aureus ATCC 27660, methicillin resistant strain (MRSA). Type of assay: cell-based, Staphylococcus aureus.
In assay [6] the test system is S. aureus ATCC 33591. The assay is described as follows: MIC, NCCLS broth microdilution assay. Type of assay: cell-based, Staphylococcus aureus. The following applies: S. aureus ATCC 33591.
Assay [7] concerns S. pneumoniae ATCC 49619. The experiment in a line: MIC, NCCLS broth microdilution assay. Type of assay: cell-based, Streptococcus pneumoniae. Conditions: S. pneumoniae ATCC 49619.
In assay [8] the test system is E. coli ATCC 25922. The assay is described as follows: MIC, NCCLS broth microdilution assay. Type of assay: cell-based, Escherichia coli. The following applies: E. coli ATCC 25922.

Regarding `CN(C)CCCNc1ncccc1C(=O)Nc1ccc(-c2cc3ccccc3s2)nc1` [Compound A-74], the “Minimum Inhibitory Concentration (MIC)” value in assay [1] was “+ (12 ≦ MIC ≦ 32)”; in assay [2], “+ (12 ≦ MIC ≦ 32)”; in assay [3], “++ (4 < MIC < 12)”; in assay [4], “++ (4 < MIC < 12)”; in assay [5] it was “+ (12 ≦ MIC ≦ 32)”; in assay [6], “++ (4 < MIC < 12)”. Besides, the results for the “Minimum Inhibitory Concentration (MIC)” value in assay [7] and in assay [8] were “+ (12 ≦ MIC ≦ 32)” and above 32 µg/mL, respectively.
Take `O=C(Nc1ccc(-c2cc3ccccc3o2)cc1)c1ccc(Cl)cc1NCCN1CCNCC1` [Compound A-26]: the “Minimum Inhibitory Concentration (MIC)” value in assay [1] is “+ (12 ≦ MIC ≦ 32)”; in assay [2], above 32 µg/mL; in assay [3], “++ (4 < MIC < 12)”; in assay [4], “+++ (MIC ≦ 4)”; in assay [5], “++ (4 < MIC < 12)”; in assay [6], “++ (4 < MIC < 12)”. The “Minimum Inhibitory Concentration (MIC)” value was “+ (12 ≦ MIC ≦ 32)” in assay [7] and above 32 µg/mL in assay [8].
With `CN(C)CCCNc1snc(C(=O)Nc2ccc(-c3cc4ccccc4[nH]3)cc2)c1Cl` [Compound A-57], the “Minimum Inhibitory Concentration (MIC)” value is “+ (12 ≦ MIC ≦ 32)” in assay [1]; “+++ (MIC ≦ 4)” in assay [2]; “++ (4 < MIC < 12)” in assay [3]; “++ (4 < MIC < 12)” in assay [4]; “++ (4 < MIC < 12)” in assay [5]; “+ (12 ≦ MIC ≦ 32)” in assay [6]. The “Minimum Inhibitory Concentration (MIC)” value in assay [7] and in assay [8] was above 32 µg/mL each time.
As for `O=C(Nc1ccc(-c2cc3ccccc3s2)cc1)c1nsc(NCCN2CCCC2)c1Cl` [Compound A-46], the “Minimum Inhibitory Concentration (MIC)” value is above 32 µg/mL in assay [1]; above 32 µg/mL in assay [2]; above 32 µg/mL in assay [3]; “+ (12 ≦ MIC ≦ 32)” in assay [4]; “+ (12 ≦ MIC ≦ 32)” in assay [5]; above 32 µg/mL in assay [6]. Also, the “Minimum Inhibitory Concentration (MIC)” value in assay [7] and in assay [8] was above 32 µg/mL in each case.
Take `NCCCCNc1snc(C(=O)Nc2ccc(-c3cc4ccccc4o3)nc2)c1Cl` [Compound A-37]: the “Minimum Inhibitory Concentration (MIC)” value is above 32 µg/mL in assay [1]; “+ (12 ≦ MIC ≦ 32)” in assay [2]; “++ (4 < MIC < 12)” in assay [3]; “+++ (MIC ≦ 4)” in assay [4]; “+++ (MIC ≦ 4)” in assay [5]; “++ (4 < MIC < 12)” in assay [6]. Further, the “Minimum Inhibitory Concentration (MIC)” value in assay [7] and in assay [8] was above 32 µg/mL in each case.
Regarding `CN(C)CCCNc1snc(C(=O)Nc2ccc(-c3cc4ccccc4o3)nc2)c1Cl` [Compound A-36], the “Minimum Inhibitory Concentration (MIC)” value in assay [1] is on record as “++ (4 < MIC < 12)”; in assay [2], “++ (4 < MIC < 12)”; in assay [3], “++ (4 < MIC < 12)”; in assay [4] it was “+++ (MIC ≦ 4)”; in assay [5], “+ (12 ≦ MIC ≦ 32)”; in assay [6], “++ (4 < MIC < 12)”. Further, the “Minimum Inhibitory Concentration (MIC)” value was “+ (12 ≦ MIC ≦ 32)” in assay [7] and above 32 µg/mL in assay [8].
Regarding `Cc1ccc2oc(-c3ccc(NC(=O)c4nsc(NCCCN(C)C)c4Cl)cc3)cc2n1` [Compound A-55], the “Minimum Inhibitory Concentration (MIC)” value in assay [1] is “+ (12 ≦ MIC ≦ 32)”; in assay [2] it was “++ (4 < MIC < 12)”; in assay [3] it was “+ (12 ≦ MIC ≦ 32)”; in assay [4], “++ (4 < MIC < 12)”; in assay [5], “++ (4 < MIC < 12)”; in assay [6], “+ (12 ≦ MIC ≦ 32)”. For the same compound, the “Minimum Inhibitory Concentration (MIC)” value in assay [7] was “+ (12 ≦ MIC ≦ 32)”; in assay [8], above 32 µg/mL.
With `O=C(Nc1ccc(-c2cc3ccccc3o2)nc1)c1nsc(NCCN2CCNCC2)c1Cl` [Compound A-35], the “Minimum Inhibitory Concentration (MIC)” value in assay [1] was above 32 µg/mL; in assay [2], “+++ (MIC ≦ 4)”; in assay [3], “+ (12 ≦ MIC ≦ 32)”; in assay [4], “+ (12 ≦ MIC ≦ 32)”; in assay [5], “+ (12 ≦ MIC ≦ 32)”; in assay [6] it was above 32 µg/mL. Moreover, the “Minimum Inhibitory Concentration (MIC)” value in assay [7] and in assay [8] was above 32 µg/mL throughout.
`NCCOCCOCCNc1cc(Cl)ccc1C(=O)Nc1ccc(-c2cc3ccccc3o2)cc1` [Compound A-24]: the “Minimum Inhibitory Concentration (MIC)” value in assay [1] is above 32 µg/mL; in assay [2] it was above 32 µg/mL; in assay [3], “+ (12 ≦ MIC ≦ 32)”; in assay [4] it was “+ (12 ≦ MIC ≦ 32)”; in assay [5], “+ (12 ≦ MIC ≦ 32)”; in assay [6] it was “+ (12 ≦ MIC ≦ 32)”. Further, the “Minimum Inhibitory Concentration (MIC)” value in assay [7] and in assay [8] was above 32 µg/mL each time.
With `O=C(Nc1ccc(-c2cc3ccccc3o2)nc1)c1ccc(Cl)cc1NCCN1CCCC1` [Compound A-43], the “Minimum Inhibitory Concentration (MIC)” value in assay [1] was “++ (4 < MIC < 12)”; in assay [2], above 32 µg/mL; in assay [3], “++ (4 < MIC < 12)”; in assay [4], “++ (4 < MIC < 12)”; in assay [5] it was “++ (4 < MIC < 12)”; in assay [6] it was “++ (4 < MIC < 12)”. Further, the “Minimum Inhibitory Concentration (MIC)” value is “+ (12 ≦ MIC ≦ 32)” in assay [7] and above 32 µg/mL in assay [8].
Turning to `Cc1cc(NC(=O)c2cccnc2NCCN2CCCCC2)ccc1-c1cc2ccccc2o1` [Compound A-27], the “Minimum Inhibitory Concentration (MIC)” value is “++ (4 < MIC < 12)” in assay [1]; “++ (4 < MIC < 12)” in assay [2]; “+++ (MIC ≦ 4)” in assay [3]; “+++ (MIC ≦ 4)” in assay [4]; “+++ (MIC ≦ 4)” in assay [5]; “+++ (MIC ≦ 4)” in assay [6]. In addition, the “Minimum Inhibitory Concentration (MIC)” value in assay [7] is “+ (12 ≦ MIC ≦ 32)”; in assay [8], above 32 µg/mL.
As to `NCCNc1ncccc1C(=O)Nc1ccc(-c2cc3ccccc3o2)nc1` [Compound A-40], the “Minimum Inhibitory Concentration (MIC)” value in assay [1] is given as “+ (12 ≦ MIC ≦ 32)”; in assay [2], “+ (12 ≦ MIC ≦ 32)”; in assay [3], “++ (4 < MIC < 12)”; in assay [4], “++ (4 < MIC < 12)”; in assay [5], “++ (4 < MIC < 12)”; in assay [6], “+ (12 ≦ MIC ≦ 32)”. The figures for the “Minimum Inhibitory Concentration (MIC)” value in assay [7] and in assay [8] were above 32 µg/mL and “+ (12 ≦ MIC ≦ 32)”, respectively.
On to `O=C(Nc1ccc(-c2cc3ccccc3[nH]2)cc1)c1nsc(NCCN2CCOCC2)c1Cl` [Compound A-60], for which the “Minimum Inhibitory Concentration (MIC)” value in assay [1], in assay [2], in assay [3], in assay [4], in assay [5] and in assay [6] was above 32 µg/mL in each case. For the same compound, the “Minimum Inhibitory Concentration (MIC)” value in assay [7] and in assay [8] was above 32 µg/mL each time.
In the case of `O=C(Nc1ccc(-c2cc3ccccc3[nH]2)cc1)c1cccnc1NCCN1CCOCC1` [Compound A-66], the “Minimum Inhibitory Concentration (MIC)” value in assay [1], in assay [2], in assay [3], in assay [4], in assay [5] and in assay [6] was above 32 µg/mL each time. For the same compound, the “Minimum Inhibitory Concentration (MIC)” value in assay [7] and in assay [8] was above 32 µg/mL in each case.
Take `Cc1cc(NC(=O)c2cccnc2NCCN2CCNCC2)ccc1-c1cc2ccccc2o1` [Compound A-28]: the “Minimum Inhibitory Concentration (MIC)” value in assay [1] is given as “+ (12 ≦ MIC ≦ 32)”; in assay [2], “+ (12 ≦ MIC ≦ 32)”; in assay [3], “++ (4 < MIC < 12)”; in assay [4], “++ (4 < MIC < 12)”; in assay [5] it was “++ (4 < MIC < 12)”; in assay [6], “++ (4 < MIC < 12)”. Moreover, the “Minimum Inhibitory Concentration (MIC)” value in assay [7] was “+ (12 ≦ MIC ≦ 32)”; in assay [8], above 32 µg/mL.
